In article PMC7143582, “Functional Characterization of Sex Pheromone Receptors in the Fall Armyworm (Spodoptera frugiperda)” (Insects, 2020):

Experiments:
SfruOR13 = test system: T1, SfruOR13; test: two-electrode voltage clamp, Xenopus oocytes co-expressing SfruOR13/ORco, dose-response; type: cell-based, Spodoptera frugiperda
T1 construct: gene OR13; full-length ORF; with SfruORco

SfruOR16 = test system: T2, SfruOR16; test: two-electrode voltage clamp, Xenopus oocytes co-expressing SfruOR16/ORco, dose-response; type: cell-based, Spodoptera frugiperda
T2 construct: gene OR16; full-length ORF; with SfruORco

Row | EC50 (SfruOR13) [µM] | EC50 (SfruOR16) [µM] | Structure (SMILES)
1 | 6.08 |  | CCCC/C=C\CCCCCCCCOC(C)=O [Z9-14:OAc]
2 |  | 16.9 | CCCC/C=C\CCCCCCCCO [Z9-14:OH, (Z)-9-tetradecen-1-ol]
